Eight molecules from PMC5412352 (International Journal of Molecular Sciences, 2017) can be followed below.

Read-outs that look alike come from different tables or passages of the source.

Data set [1] addresses T1, hGhrR (COS7 cells stably transfected with hGhrR) (Homo sapiens, UniProt Q92847).
T1 construct: expressed in transfected cells
Nature of the data set: Inositol phosphate accumulation assay, antagonistic potency with 10^-8 M ghrelin. It is filed as cell-based. As to conditions: for Emax: COS-7, read-out: Emax (antagonistic efficacy). As for the experimental part: Antagonistic properties at the hGhrR
antagonistic potency in an inositol phosphate accumulation assay (Table S1). The receptor was
Table S1. Inositol phosphate accumulation assay to determine antagonistic potencies of candidate
Compounds were analyzed by inositol phosphate accumulation in COS7 cells stably

The target of a further data set is T2, rat σ2 receptor (Rattus norvegicus, UniProt Q5U3Y7).
T2 construct: rat σ2 receptor = rat liver homogenate; from tissue; host or cells: rat liver homogenate
T2 sequence (Q5U3Y7 1-176): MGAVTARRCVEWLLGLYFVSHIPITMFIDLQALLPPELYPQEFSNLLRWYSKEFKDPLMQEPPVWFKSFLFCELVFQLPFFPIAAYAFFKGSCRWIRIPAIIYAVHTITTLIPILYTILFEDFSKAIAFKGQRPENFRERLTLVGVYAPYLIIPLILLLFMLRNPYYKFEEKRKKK
Nature of the data set: Selectivity radioligand displacement, [3H]DTG, rat liver homogenate. Type of data set: binding. To be noted: [3H]DTG + 1 µM dextrallorphan. As for the experimental part: […]
(§1) The incubations were terminated by rapid filtration via glass-fiber filters presoaked in PEI (0.3%, 60 min at rt), and the filter-bound radioactivity was counted by liquid scintillation counting (Tricarb, PerkinElmer).
(Displacement assays read how much labelled ligand stays bound in the presence of the test substance.)

Data set [2] in a line: HPLC-based chromatographic hydrophobicity index on immobilized artificial membranes (CHI IAM). Type of data set: physicochemical. As to conditions: IAM PC DD2 column, acetonitrile / 50 mM ammonium acetate gradient. The text has this:
Physicochemical properties of a drug such as lipophilicity and non-specific binding to membranes and plasma proteins are crucial parameters of a potential radiotracer, in particular if it is supposed to pass the blood brain barrier (BBB). The lipophilicity (logD7.4) was estimated using the commercially available ACD/Labs-12.5 software and the non-specific binding was estimated by the high-performance liquid chromatography (HPLC)-based hydrophobicity index at immobilized artificial membranes (CHI IAM) for seven fluorine substituted candidate molecules and (S)-13 without fluorine (Table 3).
The chromatographic hydrophobicity index on immobilized artificial membranes (CHI IAM) was experimentally determined by a HPLC method described by Valko and co-workers using a IAM PC DD2 column (100 × 4.6 mm, […], Regis Technologies, IL, USA), a gradient of acetonitrile, and 50 mM ammonium acetate as eluent and acetanilide, acetophenone, 1,4-dinitrobenzene, anisole propiophenone, valerophenone, and octanophenone as references.

Data set [3] deals with hGhrR (COS7 cells stably expressing hGhrR-eYFP) (Homo sapiens, UniProt Q92847). Kind of data set: cell-based. As to conditions: for Emax: COS-7, mean ± SEM, refers to ghrelin Emax as 100%, 0% = constitutive receptor activity.
Protocol: For that purpose, the inositol phosphate accumulation assay was used [43, 44].
Briefly, 60,000 to 80,000 cells/well of COS7 cells, stably expressing the fusion protein hGhrR-eYFP, were seeded in 48-well plates in Dulbecco’s modified Eagle’s medium (DMEM) with 10% fetal calf serum (FCS) and 0.4 mg/mL hygromycin B. The next day, the cells were labeled with [2-^3H]-myo-inositol (2 µCi/mL, PerkinElmer). […] Cell debris was removed and the supernatant purified on an anion-exchange resin (BioRad, Hercules, CA, USA). The obtained data were analyzed with GraphPad Prism 5.0 (GraphPad Software, San Diego, CA, USA). […] EC50/IC50 values were calculated from at least three independent experiments. Emax is defined as the difference between maximal and minimal effect in presence of the compound.
Data set [4] addresses human GhrR (hGhrR-eYFP, HEK293 cell membranes) (Homo sapiens, UniProt Q92847). Kind of data set: Competitive radioligand binding assay with [125I-His9]ghrelin at hGhrR membranes. To be noted: for fold higher IC50 than (S)-9: hGhrR binding IC50 relative to starting compound (S)-9.
Protocol: Each concentration was tested in duplicate. The membrane-bound radioligand was trapped on a Filtermat B (PerkinElmer) pre-soaked with 0.1% polyethylenimine in H2O by using a filtermat harvester (PerkinElmer). After drying for 20 min at 55 °C, a Meltilex scintillation sheet (PerkinElmer) was melted onto the filtermat and the samples were counted in a Microbeta scintillation counter (PerkinElmer).
For the next data set, the target named is T3, human α3β4 nAChR (Homo sapiens, UniProt P30926+P32297).
T3 construct: expressed in transfected cells; host or cells: HEK cells (by courtesy of Dominik Feuerbach, Novartis), homogenate
Nature of the data set: Selectivity radioligand displacement, [3H]epibatidine, transfected HEK cells. It is filed as binding. To be noted: read-out: Ki at α3β4 nAChRs. On the procedure:
[…]
as §1

Where [5] appears, read: 5 min pre-stimulation with compound, then 10^-8 M ghrelin, read-out: IC50 (antagonistic potency).
The mark [6] stands for this setting: EC50, 2 h stimulation in absence of ghrelin, COS7-hGhrR.
The mark [7] stands for this setting: pEC50, mean ± SEM, 2 h stimulation in absence of ghrelin.

Chain of hGhrR (COS7 cells stably expressing hGhrR-eYFP) (Q92847 whole entry): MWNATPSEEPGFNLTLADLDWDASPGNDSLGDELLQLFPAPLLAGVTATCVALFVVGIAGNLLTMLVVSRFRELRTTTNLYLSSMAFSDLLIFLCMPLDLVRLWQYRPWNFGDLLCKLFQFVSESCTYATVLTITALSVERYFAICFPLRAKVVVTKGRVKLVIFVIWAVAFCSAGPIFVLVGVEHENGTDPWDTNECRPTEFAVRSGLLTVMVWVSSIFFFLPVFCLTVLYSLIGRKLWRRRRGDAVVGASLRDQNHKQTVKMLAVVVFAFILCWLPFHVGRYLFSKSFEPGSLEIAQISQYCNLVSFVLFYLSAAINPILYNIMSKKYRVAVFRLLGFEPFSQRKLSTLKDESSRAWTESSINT
T1 sequence (Q92847 whole entry): as above
Chain of human GhrR (hGhrR-eYFP, HEK293 cell membranes) (Q92847 whole entry): as above
T3 sequence (P32297 32-505): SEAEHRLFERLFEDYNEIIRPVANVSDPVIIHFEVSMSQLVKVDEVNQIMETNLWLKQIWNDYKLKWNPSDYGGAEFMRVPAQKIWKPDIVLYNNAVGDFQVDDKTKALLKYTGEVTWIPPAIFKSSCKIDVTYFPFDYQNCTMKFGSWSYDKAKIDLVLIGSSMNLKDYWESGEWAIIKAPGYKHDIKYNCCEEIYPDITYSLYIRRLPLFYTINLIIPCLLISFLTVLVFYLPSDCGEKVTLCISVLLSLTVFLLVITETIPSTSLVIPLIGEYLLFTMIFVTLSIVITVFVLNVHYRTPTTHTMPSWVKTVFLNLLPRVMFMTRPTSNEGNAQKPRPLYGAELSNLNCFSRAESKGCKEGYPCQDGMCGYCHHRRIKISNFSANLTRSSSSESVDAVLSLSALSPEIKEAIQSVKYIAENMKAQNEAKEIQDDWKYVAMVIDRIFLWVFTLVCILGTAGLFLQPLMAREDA
T3 sequence (P30926 22-498): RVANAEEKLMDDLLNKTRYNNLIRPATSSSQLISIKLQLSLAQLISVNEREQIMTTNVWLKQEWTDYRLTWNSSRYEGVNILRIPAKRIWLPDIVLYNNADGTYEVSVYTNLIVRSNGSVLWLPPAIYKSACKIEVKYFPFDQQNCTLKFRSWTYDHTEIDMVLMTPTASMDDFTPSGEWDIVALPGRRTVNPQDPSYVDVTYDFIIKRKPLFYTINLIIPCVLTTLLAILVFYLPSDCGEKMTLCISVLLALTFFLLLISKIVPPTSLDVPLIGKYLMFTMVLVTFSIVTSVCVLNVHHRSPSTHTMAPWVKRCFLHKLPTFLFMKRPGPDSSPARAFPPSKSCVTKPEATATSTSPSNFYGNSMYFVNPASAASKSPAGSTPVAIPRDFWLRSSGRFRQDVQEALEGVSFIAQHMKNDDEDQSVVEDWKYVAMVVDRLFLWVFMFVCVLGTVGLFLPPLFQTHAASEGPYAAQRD

On to `Cc1nc2ccc(Oc3ccc(Br)cc3F)nc2c(=O)n1C[C@@H]1CCCN(C(C)C)C1` [(R)-9, (R)-6-(4-Bromo-2-fluorophenoxy)-3-((1-isopropylpiperidin-3-yl)methyl)-2-methylpyrido[3,2-d]pyrimidin-4(3H)-one], for which the IC50 in data set [1] (setting [5]) was 17.5 nM; in data set [4] it was 3.89 nM. Moreover, the Emax – broadly, the maximal effect, on the per cent scale that the assay sets – in data set [1] is 45 ± 5%; in data set [3], roughly 60%. Further, the Ki – broadly, a dissociation constant, usually derived from enzyme kinetics or from competition with a known ligand – at rat σ2 receptor amounted to 53 ± 7 nM. Also, in data set [2], the “CHI IAM” value stood at 42.8. Further, the EC50 (in general, the midpoint of the concentration-response curve) is 0.6 nM in data set [3] (setting [6]) and 0.55 nM in data set [3] (setting [7]).
With `CC(C)N1CCC[C@H](Cn2cnc3ccc(Oc4ccc(Br)cc4F)nc3c2=O)C1` [(S)-16, (S)-6-(4-Bromo-2-fluorophenoxy)-3-((1-isopropylpiperidin-3-yl)methyl)pyrido[3,2-d]pyrimidin-4(3H)-one], the values for the IC50 in data set [1] (setting [5]) and in data set [4] were 28.7 nM and 2.69 nM, respectively. For the same molecule, the Emax in data set [1] amounted to 65 ± 5%; in data set [3] it was 40 ± 4%. In data set [2], the “CHI IAM” value amounted to 42.3. Besides, in data set [3] (setting [7]), the EC50 was 1.02 nM.
Consider `Cc1nc2ccc(Oc3ccc(Br)cc3F)nc2c(=O)n1C[C@H]1CCCN(CCCF)C1` [(S)-11, (S)-6-(4-Bromo-2-fluorophenoxy)-3-((1-(3-fluoropropyl)piperidin-3-yl)methyl)-2-methylpyrido[3,2-d]pyrimidin-4(3H)-one], for which the IC50 in data set [1] (setting [5]) came to 349 nM; in data set [4], 66 nM. The Emax in data set [1] is 56 ± 10%; in data set [3], roughly 60%. Besides, the Ki on human α3β4 nAChR was 27 ± 8 nM. Besides, the “CHI IAM” value in data set [2] was 42.2. The EC50 in data set [3] (setting [7]) is 2.88 nM. For the same molecule, the “fold higher IC50 than (S)-9” value in data set [4] was “about 30 fold”.
As for `Cc1nc2ccc(Oc3ccc(Br)cc3F)nc2c(=O)n1C[C@H]1CCCN(CCF)C1` [(S)-10, (S)-6-(4-Bromo-2-fluorophenoxy)-3-((1-(2-fluoroethyl)piperidin-3-yl)methyl)-2-methylpyrido[3,2-d]pyrimidin-4(3H)-one], the IC50 came out at 345 nM in data set [1] (setting [5]) and 69 nM in data set [4]. Further, the Emax in data set [1] is 22 ± 4%; in data set [3] it was roughly 60%. Also, the “CHI IAM” value in data set [2] turned out to be 39.6. In data set [3] (setting [7]), this molecule showed an EC50 of 1.58 nM. Moreover, the “fold higher IC50 than (S)-9” value in data set [4] is on record as “about 30 fold”.
For `Cc1nc2ccc(Oc3ccc(Br)cc3)nc2c(=O)n1C[C@H]1CCCN(C(C)C)C1` [(S)-14], the IC50 in data set [1] (setting [5]) is 123 nM; in data set [4], 12.3 nM. The Emax in data set [1] worked out at 57 ± 6%; in data set [3], 42 ± 4%. For the same molecule, the “CHI IAM” value in data set [2] was 42.8. For the same molecule, in data set [3] (setting [7]), the EC50 was 2.14 nM.
As to `Cc1nc2ccc(Oc3ccc(Br)cc3F)nc2c(=O)n1C[C@H]1CCCN(CCCCF)C1` [(S)-12, (S)-6-(4-Bromo-2-fluorophenoxy)-3-((1-(4-fluorobutyl)piperidin-3-yl)methyl)-2-methylpyrido[3,2-d]pyrimidin-4(3H)-one], the Ki at human α3β4 nAChR turned out to be 64 ± 14 nM. The “CHI IAM” value in data set [2] was determined as 43.3. In data set [4], this molecule came in with an IC50 of 574 nM.
Take `CC(C)N1CCC[C@H](Cn2c(F)nc3ccc(Oc4ccc(Br)cc4F)nc3c2=O)C1` [(S)-17, (S)-6-(4-Bromo-2-fluorophenoxy)-2-fluoro-3-((1-isopropylpiperidin-3-yl)methyl)pyrido[3,2-d]pyrimidin-4(3H)-one]: the IC50 in data set [4] was found to be 151 nM.
With `Cc1nc2ccc(Oc3ccc(Br)cc3F)nc2c(=O)n1C[C@H]1CCCN(C(C)CF)C1` (stereo partly drawn) [(S)-13, 6-(4-Bromo-2-fluorophenoxy)-3-(((3S)-1-(1-fluoropropan-2-yl)piperidin-3-yl)methyl)-2-methylpyrido[3,2-d]pyrimidin-4(3H)-one], the IC50 in data set [1] (setting [5]) was 207 nM; in data set [1] (mean ± SEM, with 10^-8 M ghrelin, read-out: pIC50 (antagonistic potency) (converted)) it was 204 nM; in data set [4] it was 12.6 nM. The Emax in data set [1] was 31 ± 5%; in data set [3] it was roughly 60%. Further, in data set [2], the “CHI IAM” value is recorded as 42.8. The concentration giving a half-maximal response (EC50) was 1.4 nM in data set [3] (setting [6]) and 1.35 nM in data set [3] (setting [7]).
